Read-outs that look alike come from different tables or passages of the source.
Columns and labels:
Sprague Dawley rats [1] = experiment: Semi-quantitative histopathology of skin at injection site after ID zoledronic acid with or without rHuPH20; type: in vivo; set-up: key to Necrosis: Mid-dermis / Infiltration: Focal / Infiltration: Muscular / Necrosis: Epidermis / Infiltration: Skin Diffuse / Infiltration: Muscle: —: Dash indicates no incidence of indicated finding; key to Infiltration: Skin Focal: —: Dash indicates no incidence of the indicated observation; conditions: rat ID, 4 days
Description: (§1) Nine to ten week old female Sprague Dawley rats, having approximate body weight of 200-250 grams, were employed for the study. One day prior to injection, rats were shaved and hair on the back and flank area were removed by Nair® cream (exposure less than 1 min to depilation cream) followed by deep wash with warm tap water. On the day of dosing, all rats were injected intradermally in flank area (one or two injection spots per side), with 0.1 or 0.2 mL as indicated of zoledronic acid solution, with or without rHuPH20, at each corresponding concentration as shown in study design table. Injection site appearance was observed and quantified by blind assessment each day following the injection until the end of the study, at which time animals were sacrificed and the skin around the dosing area as well as a part of the skin that was not effected by the dosing were collected and fixed in 10% neutral buffered formalin (NBF) and further embedded in paraffin, 5 μm sections were cut for H&E stain and histopathology evaluation.
Lesion area was calculated by the following formula: W×L×¼π. Quantitative results were analyzed using one-way analysis of variance (ANOVA) method, followed by Dunnett's comparison method (Prizm 4 program). The probability values of less than 0.05 (two-tailed) were used as the critical level of significance for all tests. Groups with a sample size of two were excluded from analysis. If the sample size was 2 for the control group, there were no statistical analyses at that interval for any of the groups. Histopathologic findings were characterized by semi-quantitative analysis of necrosis and infiltration in the skin tissue. The incidences of each finding were compared with control groups by Chi-square test.
Prior to ZA intradermal injection, rats were randomized by body weight into 7 groups of 1 or 2 rats per group (Table 2). Rats were injected with either 0.1 mL or 0.2 mL of each corresponding concentration intradermally at two separate locations on each shaved flank side for a total of 4 injections for each animal. Injection sites were observed daily post-injection for four days. Pictures of injection site reaction (ISR) area were captured by digital camera and lesion area was scored for induration, erythema, or ulceration. Two perpendicular diameters (width & length) of injection site lesion were measured by microcaliper. The lesion area was defined as the area bounded by the outer edge of the erythemic zone. Upon completion of the study, the animals were euthanized and skin at the injection site and from an untreated area of the back of the rat were excised, mounted flat onto a piece of cardboard, and placed in 10% NBF.
A series of experiments were conducted in which various dosing concentrations of rHuPH20 were tested for the ability to reduce acute injection site lesions. Prior to ZA intra-dermal injection, rats were randomized by body weight into 11 groups of 2 rats per group. Rats were injected intradermally with 0.1 mL of each co-formulated solution as shown in Table 5 and observed daily with ISR development assessed as in Section B. Four days after injection, rats were sacrificed and the skin at the injection site as well as untreated skin from the back was excised, mounted flat onto a piece of cardboard, and placed in 10% NBF. […]

Sprague Dawley rats [2] = experiment: Injection site reaction recovery study (10 days) after ID ZA with or without rHuPH20; type: in vivo, rat
Description: Sprague Dawley rats were randomized to three groups of 4 rats each. ZA (0.1 ml at 0.1 mg/mL), either alone or supplemented with either 130 U/mL or 100,000 U/mL rHuPH20, was given via intradermal injection. Injection sites were observed and measured daily. Animals were sacrificed at 10 days post-injection and skin from lesion areas were dissected, fixed in 10% buffered formalin, embedded in paraffin and stained with H&E.

Sprague Dawley rats [3] = experiment: Semi-quantitative histopathology of skin at injection site after ID zoledronic acid with or without rHuPH20; type: in vivo; set-up: key: —: Dash indicates no incidence of the indicated observation; conditions: rat ID; ZA 0.4 mg/mL; rHuPH20 0 U/ml; 4 days
Description: as §1
(§2) Lesion area was calculated by the following formula: W×L×¼π. Quantitative results were analyzed using one-way analysis of variance (ANOVA) method, followed by Dunnett's comparison method (Prizm 4 program). […] Histopathologic findings were characterized by semi-quantitative analysis of necrosis and infiltration in the skin tissue. […]

Sprague Dawley rats [4] = experiment: as above; type: in vivo; set-up: key: —: Dash indicates no incidence of indicated finding; conditions: rat ID, 4 days
Description: as §1, §2

[5] = cited from earlier work; for IV MRT: IV […] infusion, calculated from published ZA PK data

O=P(O)(O)C(O)(Cn1ccnc1)P(=O)(O)O [ZA, 1-hydroxy-2-(1H-imidazol-1-yl)ethylidene-1,1-bisphosphonic acid]
Infiltration: Muscle (Sprague Dawley rats [1]; ZA 0.05 mg/mL, rHuPH20 0 U/ml): — | Infiltration: Skin Diffuse (Sprague Dawley rats [1]; ZA 0.05 mg/mL, rHuPH20 0 U/ml): — | Necrosis: Epidermis (Sprague Dawley rats [1]; ZA 0.05 mg/mL, rHuPH20 0 U/ml): — | Infiltration: Skin Focal (Sprague Dawley rats [1]; ZA 0.4 mg/mL, rHuPH20 0 U/ml): — | Infiltration: Muscular (Sprague Dawley rats [1]; ZA alone 0.05 mg/mL): — | Necrosis: Mid-dermis (Sprague Dawley rats [1]; ZA alone 0.05 mg/mL): — | Infiltration: Focal (Sprague Dawley rats [1]; ZA alone 0.1 mg/mL): — | Necrosis: Mid-dermis (Sprague Dawley rats [1]; ZA alone 0.1 mg/mL): — | Infiltration: Focal (Sprague Dawley rats [1]; ZA alone 0.2 mg/mL): — | Necrosis: Mid-dermis (Sprague Dawley rats [1]; ZA alone 0.2 mg/mL): — | Infiltration: Focal (Sprague Dawley rats [1]; ZA alone 0.4 mg/mL): — | Infiltration: Focal (Sprague Dawley rats [1]; ZA alone 0.6 mg/mL): — | Infiltration: Focal (Sprague Dawley rats [1]; ZA alone 0.8 mg/mL): — | time to peak lesion area (Sprague Dawley rats [2]; rat ID 0.1 ml, ZA 0.1 mg/mL alone or with 130 or 100,000 U/mL rHuPH20): 3 days | histopathologic findings (Sprague Dawley rats [2]; rat ID, ZA 0.1 mg/mL alone, 10 days post-injection): scabbing, epidermal necrosis, infiltration, vessel dilation and hemorrhage | Necrosis: Superficial dermis (Sprague Dawley rats [3]): — | Necrosis: Superficial dermis (Sprague Dawley rats [4]; ZA alone 0.05 mg/mL): — | Necrosis: Superficial dermis (Sprague Dawley rats [4]; ZA alone 0.1 mg/mL): — | IV MRT ([5]; adjusted to match SC dose 0.25 mg): 1.9010 h | IV MRT ([5]; adjusted to match SC dose 0.5 mg): 2.2330 h | IV MRT ([5]; adjusted to match SC dose 1 mg): 5.2494 h | IV MRT ([5]; adjusted to match SC dose 5 mg): 9.1957 h | terminal γ phase half-life (T½γ) ([5]; man, IV): ~146 h

— patent publication US20090311237A1, “Combination therapy using a soluble hyaluronidase and a bisphosphonate” (priority 2008, published 2009)
